How the values were obtained:
[1] = Cytotoxicity in mock-infected MT-4 cells (MTT); assay type: cell-based; conditions: human, read-out: CC50 in MT4-IIIB (μm)
Method: A rapid and automated assay procedure was used for the in vitro evaluation of anti-HIV agents. An HTLV-1 transformed T4-cell line MT-4, which was previously shown to be highly susceptible to and permissive for HIV infection, served as the target cell line. Inhibition of the HIV-induced cytopathogenic effect was used as the end point. The viability of both HIV-and mock-infected cells was assessed spectrophotometrically via in situ reduction of 3-(4,5-dimethylthiazol-2-yl)-2,5-diphenyltetrazolium bromide (MTT). The 50% cytotoxic concentration (CC50 in μg/ml) was defined as the concentration of compound that reduced the absorbance of the mock-infected control sample by 50%. The percent protection achieved by the compound in HIV-infected cells was calculated by the following formula: […]
Examples of inhibition of cell proliferation by particular compounds of formula (I) can be found by looking at the respective CC50 values in the MT-4 cell line.
Cells: MT-4 cells (Miyoshi et al., 1982) were grown and maintained in RPMI 1640 medium supplemented with 10% heat-inactivated fetal calf serum, 2 mM I-glutamine, 0.1% sodium bicarbonate, and 20 æg of gentamicin per ml.

[2] = target: T1, His6-tagged HIV-1 integrase / flag-LEDGF/p75 interaction (Human immunodeficiency virus type 1 group M subtype B, UniProt P04585); test: AlphaScreen assay of LEDGF-integrase interaction inhibition; assay type: binding; conditions: compounds tested from 0.1 up to 100 μM
T1 construct: His6-tagged HIV-1 integrase; made in house
Method: Alphascreen Assay to Measure the LEDGF-Integrase Interaction Inhibitory Activity of Compounds of the Invention
The AlphaScreen assay was performed according to the manufacturer's protocol (Perkin Elmer, Benelux). Reactions were performed in 25 μl final volume in 384-well Optiwell™ microtiter plates (Perkin Elmer). The reaction buffer contained 25 mM Tris-HCl (pH 7.4), 150 mM NaCl, 1 mM MgCl2, 0.01% (v/v) Tween-20 and 0.1% (w/v) bovine serum albumin. His6-tagged integrase (300 nM final concentration) was incubated with the compounds for 30 min at 4° C. The compounds were added at varying concentrations spanning a wide range from 0.1 up to 100 μM. Afterwards 100 nM flag-LEDGF/p75 was added and incubation was prolonged for an additional hour at 4° C. Subsequently 5 μl of Ni-chelate-coated acceptor beads and 5 μl anti-flag donor beads were added to a final concentration of 20 μg/ml of both beads. Proteins and beads were incubated for 1 h at 30° C. in order to allow association to occur. Exposure of the reaction to direct light was omitted as much as possible and the emission of light from the acceptor beads was measured in the EnVision plate reader (Perkin Elmer, Benelux) and analyzed using the EnVision manager software. IN/DNA binding was analyzed in a similar setting using His6-tagged integrase (1 μM final concentration) and an oligodeoxynucleotide mimicking the IN ELISA oligonucleotide substrate (30 nM final concentration). Counterscreens with JPO2 or PogZ, respectively, were essentially performed as described previously.
Expression and purification of recombinant proteins: His6-tagged HIV-1 integrase, 3×flag-tagged LEDGF/p75, MBP-JPO2 and MBP-PogZ were purified for AlphaScreen applications as described previously 23,25,56.

HIV (MT4-IIIB) = test: Anti-HIV activity: inhibition of HIV-induced cytopathogenic effect in MT-4 cells (MTT); assay type: cell-based; conditions: Human immunodeficiency virus 1, IIIB

`CCCC(C(=O)O)c1c(C)nc(-c2ccc(C)cc2)nc1-c1ccc(C)cc1` (stereo not drawn) [cpd 10] gave a CC50 [1] of 110 µM, an IC50 [2] of 30.9 µM and an EC50 (HIV (MT4-IIIB)) of 35.9 µM.

In the case of `Cc1ccc(-c2nc(N3CCCCC3)nc(C)c2C(CC(C)(C)C)C(=O)O)cc1` (stereo not drawn) [cpd 152], the CC50 [1] is reported as 72 µM, the IC50 [2] is reported as 6.9 µM and the EC50 (HIV (MT4-IIIB)) is reported as 3.48 µM.

In the case of `CCCC(C(=O)O)c1c(C)nc(-c2ccccc2)nc1-c1ccc(C)cc1F` (stereo not drawn) [cpd 98], the CC50 [1] is reported as 113 µM, the IC50 [2] is reported as 13.5 µM and the EC50 (HIV (MT4-IIIB)) is reported as 35.9 µM.

Compound `CCCC(C(=O)O)c1c(C)nc(-c2ccccc2)nc1N1CCCCC1` (stereo not drawn) [cpd 60] has a CC50 [1] of 61 µM, an IC50 [2] of 4.71 µM and an EC50 (HIV (MT4-IIIB)) of 13.2 µM.

`CCCC(C(=O)O)c1c(C)nc(N2CCCCC2)nc1-c1ccc(C)cc1C` (stereo not drawn) [cpd 132] gave a CC50 [1] of 84.5 µM, an IC50 [2] of 22.9 µM and an EC50 (HIV (MT4-IIIB)) of 30.2 µM.

For `CCCC(C(=O)O)c1c(C)nc(N2CCCCC2)nc1-c1ccc(OC)cc1F` (stereo not drawn) [cpd 136], the CC50 [1] was 127 µM, the IC50 [2] was 20.7 µM and the EC50 (HIV (MT4-IIIB)) was 49 µM.

`CCCC(C(=O)O)c1c(C)nc(N2CCc3ccccc32)nc1-c1ccc(C)cc1` (stereo not drawn) [cpd 58] gave a CC50 [1] of 38.7 µM, an IC50 [2] of 17.9 µM and an EC50 (HIV (MT4-IIIB)) of 2.91 µM.

For `CCCC(C(=O)O)c1c(C)nc(-c2ccccc2)nc1-c1ccc2occc2c1` (stereo not drawn) [cpd 72], the CC50 [1] was 110 µM, the IC50 [2] was 14.7 µM and the EC50 (HIV (MT4-IIIB)) was 46.3 µM.

For `CCCC(C(=O)O)c1c(C)nc(-c2ccccc2)nc1-c1ccc(Cl)cc1O` (stereo not drawn) [cpd 111], the CC50 [1] was 97 µM, the IC50 [2] was 1.97 µM and the EC50 (HIV (MT4-IIIB)) was 26.4 µM.

With `CCCC(C(=O)O)c1c(C)nc(N2CCCCC2)nc1-c1ccc(C)cc1` (stereo not drawn) [cpd 22] the CC50 [1] was 100 µM, the IC50 [2] was 4.74 µM and the EC50 (HIV (MT4-IIIB)) was 9.16 µM.

`CCCC(C(=O)O)c1c(C)nc(N(C)C2CCCCC2)nc1-c1ccc(C)cc1` (stereo not drawn) [cpd 12] showed a CC50 [1] of 81.8 µM, an IC50 [2] of 25.2 µM and an EC50 (HIV (MT4-IIIB)) of 48.3 µM.

`CCCC(C(=O)O)c1c(C)nc(-c2ccccc2)nc1-c1ccc2c(c1)CCO2` (stereo not drawn) [cpd 70] showed a CC50 [1] of 90 µM, an IC50 [2] of 14.9 µM and an EC50 (HIV (MT4-IIIB)) of 42.1 µM.
